Test results from US20140288185A1, “NICOTINIC RECEPTOR NON-COMPETITIVE MODULATORS” (Targacept, Inc., priority 2011, published 2014).
Like-named read-outs stand apart in the source and are kept apart here.

Tests used:
[1] = target: T1, Nicotinic, human α3β4α5 (Homo sapiens, UniProt P30532+P30926+P32297); assay: Competition binding, human ganglion nicotinic receptor (SH-SY5Y membranes)
T1 construct: endogenous in cells; host or cells: SH-SY5Y human neuroblastoma cells
Description: (§1) Cells were harvested in ice-cold PBS, pH 7.4, then homogenized with a Polytron (Kinematica GmbH, Switzerland). Homogenates were centrifuged at 40,000 g for 20 minutes (4° C.). The pellet was re-suspended in PBS and protein concentration determined using the Pierce BCA Protein Assay kit (Pierce Biotechnology, Rockford, Ill.).
(§2) Binding to nicotinic receptors was assayed on membranes using standard methods adapted from published procedures (Lippiello and Fernandes 1986; Davies et al., 1999). In brief, membranes were reconstituted from frozen stocks and incubated for 2 h on ice in 150 μl assay buffer (50 mM Tris, 154 mM NaCl, pH 7.4) in the presence of competitor compound (0.001 nM to 100 μM) and radioligand. [^3H]-nicotine (L-(−)-[N-methyl-^3H]-nicotine, 69.5 Ci/mmol, Perkin-Elmer Life Sciences, Waltham, Mass.) was used for human α4β2 binding studies. [^3H]-epibatidine (52 Ci/mmol, Perkin-Elmer Life Sciences) was used for binding studies at the other nicotinic receptor subtypes. Incubation was terminated by rapid filtration on a multimanifold tissue harvester (Brandel, Gaithersburg, Md.) using GF/B filters presoaked in 0.33% polyethyleneimine (w/v) to reduce non-specific binding. Filters were washed 3 times with ice-cold assay buffer and the retained radioactivity was determined by liquid scintillation counting.
(§3) Binding data were expressed as percent total control binding. Replicates for each point were averaged and plotted against the log of drug concentration. The IC50 (concentration of the compound that produces 50% inhibition of binding) was determined by least squares non-linear regression using GraphPad Prism software (GraphPAD, San Diego, Calif.). Ki was calculated using the Cheng-Prusoff equation (Cheng and Prusoff, 1973).

[2] = target: human α4β2 (HS) (Homo sapiens, UniProt P17787+P43681); assay: Calcium flux inhibition, SH-EP1-human α4β2 treated at 29° C. (HS); type: cell-based
Description: (§4) SH-EP1-human α4β2 (Eaton et al., 2003), cell lines were obtained from Dr. Ron Lukas (Barrow Neurological Institute). Cells were maintained in proliferative growth phase in Dulbecco's modified Eagle's medium (Invitrogen, Carlsbad, Calif.) with 10% horse serum (Invitrogen), 5% fetal bovine serum (HyClone, Logan Utah), 1 mM sodium pyruvate, 4 mM L-glutamine. For maintenance of stable transfectants, the α4β2 cell media was supplemented with 0.25 mg/mL zeocin and 0.13 mg/mL hygromycin B.
(§5) Forty-eight hours prior to each experiment, cells were plated in 96 well black-walled, clear bottom plates (Corning, Corning, N.Y.) at 60-100,000 cells/well. On the day of the experiment, growth medium was gently removed, 200 μL 1×FLIPR Calcium 4 Assay reagent (Molecular Devices, Sunnyvale, Calif.) in assay buffer (20 mM HEPES, 7 mM TRIS base, 4 mM CaCl2, 5 mM D-glucose, 0.8 mM MgSO4, 5 mM KCl, 0.8 mM MgCl2, 120 mM N-methyl D-glucamine, 20 mM NaCl, pH 7.4 for SH-EP1-human α4β2 cells or 10 mM HEPES, 2.5 mM CaCl2, 5.6 mM D-glucose, 0.8 mM MgSO4, 5.3 mM KCl, 138 mM NaCl, pH 7.4 with TRIS-base for all other cell lines) was added to each well and plates were incubated at 37° C. for 1 hour (29° C. for the 29° C.-treated SH-EP1-human α4β2 cells). For inhibition studies, competitor compound (10 pM-10 μM) was added at the time of dye addition. The plates were removed from the incubator and allowed to equilibrate to room temperature. Plates were transferred to a FLIPR Tetra fluorometric imaging plate reader (Molecular Devices) for addition of compound and monitoring of fluorescence (excitation 485 nm, emission 525 nm). The amount of calcium flux was compared to both a positive (nicotine) and negative control (buffer alone). The positive control was defined as 100% response and the results of the test compounds were expressed as a percentage of the positive control. For inhibition studies, the agonist nicotine was used at concentrations of 1 μM for SH-EP1-human α4β2 treated at 29° C. (HS), 10 μM for SH-EP1-human α4β2 maintained at 37° C. (LS), and 20 μM for SH-SY5Y cells or CHO_human α3β4.

[3] = target: Nicotinic, human α4β2 (Homo sapiens, UniProt P17787+P43681); assay: Competition binding, human α4β2 nicotinic receptor ([3H]nicotine)
Description: as §4, §1, §2, §3

[4] = target: T2, Human Ganglion (SH-SY5Y cells) (Homo sapiens, UniProt P30532+P30926+P32297); assay: Calcium flux inhibition, human ganglion (SH-SY5Y cells); type: cell-based
T2 construct: endogenous in cells; host or cells: SH-SY5Y human neuroblastoma cells
Description: as §5

[5] = target: human α4β2 (LS) (Homo sapiens, UniProt P17787+P43681); assay: Calcium flux inhibition, SH-EP1-human α4β2 maintained at 37° C. (LS); type: cell-based; details: for Emax: read-out: Human α4β2 Ca Flux Imax [37C/HS]
Description: as §4
as §5, with “For inhibition studies, the agonist nicotine was used at concentrations of 1 μM for SH-EP1-human α4β2 treated at 29° C. (HS), 10 μM for SH-EP1-human α4β2 maintained at 37° C.” left out

[6] = target: T3, human α3β4 (Homo sapiens, UniProt P30926+P32297); assay: Calcium flux inhibition, CHO-human α3β4 cells; type: cell-based
T3 construct: host or cells: CHO
Description: (§6) CHO-human α3β4 cells (obtained from ChanTest, Cleveland, Ohio, catalog #CT6021) were maintained in proliferative growth phase in Ham's F12 (VWR) with 10% fetal bovine serum (Invitrogen), 0.25 mg/mL geneticin; 0.4 mg/ml zeocin. The amino acid sequences encoded by the transfected cDNA constructs used to generate the CHO-human α3β4 cells are identical to the translated sequences for GenBank accession numbers NM_000743.2 and NM_000750.3, respectively.
as §5

[7] = target: T4, Nicotinic, human α3β4 (Homo sapiens, UniProt P30926+P32297); assay: Competition binding, human α3β4 nicotinic receptor (CHO human α3β4 membranes)
T4 construct: host or cells: CHO
Description: as §6, §1, §2, §3

[8] = 29° C.-treated cells (HS), nicotine 1 μM
[9] = 29° C.-treated cells (HS), nicotine 1 μM, read-out: Human α4β2 Ca Flux IC50 [29C/HS]
[10] = SH-EP1-Human α4β2 cell membranes, [3H]nicotine 2 nM, read-out: Human α4β2 Ki
[11] = SH-SY5Y cells, nicotine 20 μM, read-out: Human Ganglion Ca Flux IC50
[12] = cells maintained at 37° C. (LS), nicotine 10 μM, read-out: Human α4β2 Ca Flux IC50 [37C/LS]
[13] = cells maintained at 37° C., nicotine 10 μM
[14] = nicotine 20 μM, read-out: Human CHO α3β4 Ca Flux IC50
[15] = CHO Human α3β4 membranes, [3H]epibatidine 1 nM, read-out: Human CHO α3β4 Ki

SMILES	Ki ([1]; SH-SY5Y cell membranes (α3β4α5), [3H]epibatidine 1 nM, read-out: Human Ganglion Ki)	Human α4β2 Ca Flux Imax [29C/HS] [2, 8]	IC50 [2, 9]	Ki [3, 10]	Human Ganglion Ca Flux Imax ([4]; SH-SY5Y cells, nicotine 20 μM)	IC50 [4, 11]	IC50 [5, 12]	Emax [5, 13]	IC50 [2]	Ki [3]	IC50 [6]	Human CHO α3β4 Ca Flux Imax ([6]; nicotine 20 μM)	IC50 [5]	Emax [5]	Ki [7]	Ki [1]	IC50 [4]	IC50 [6, 14]	Ki [7, 15]
CNC12CCCC1(CO)C1CCC2C1 (stereo not drawn)	89000 nM	99 % inh	370 nM	31000 nM	91 % inh	200 nM	380 nM	90%	–	–	–	–	–	–	–	–	–	–	–
CCC12CCCC1(NC)C1CCC2C1 (stereo not drawn)	–	100 % inh	–	–	98 % inh	20 nM	–	–	430 nM	34000 nM	220 nM	97 % inh	170 nM	97%	75000 nM	–	–	–	–
CCCC12CCCC1(NC)C1CCC2C1 (stereo not drawn)	–	100 % inh	–	–	98 % inh	30 nM	–	–	210 nM	29000 nM	130 nM	96 % inh	170 nM	96%	73000 nM	52000 nM	–	–	–
CCCCC12CCCC1(NC)C1CCC2C1 (stereo not drawn)	–	99 % inh	460 nM	73000 nM	93 % inh	–	140 nM	–	–	–	–	96 % inh	–	96%	–	–	24 nM	300 nM	74000 nM
CN[C@]12CCC[C@H]1[C@@H]1CC[C@H]2C1	–	96 % inh	–	–	95 % inh	380 nM	–	–	550 nM	33000 nM	490 nM	97 % inh	340 nM	96%	–	–	–	–	–
CN[C@@]12CCC[C@@H]1[C@H]1CC[C@@H]2C1	–	97 % inh	–	–	95 % inh	490 nM	–	–	380 nM	51000 nM	660 nM	97 % inh	380 nM	96%	80000 nM	70000 nM	–	–	–
[2H]C([2H])NC12CCCC1(C([2H])([2H])[2H])C1CCC2C1 (stereo not drawn)	–	–	–	26000 nM	99 % inh	83 nM	76 nM	95%	–	–	–	–	–	–	–	–	–	–	–
C[N+](C)(C)[C@]12CCC[C@H]1[C@@H]1CC[C@H]2C1	–	–	–	8600 nM	97 % inh	1800 nM	380 nM	100%	–	–	–	–	–	–	–	–	–	–	13000 nM
C[N+](C)(C)[C@@]12CCC[C@@H]1[C@H]1CC[C@@H]2C1	–	–	–	6900 nM	–	–	260 nM	98%	–	–	–	94 % inh	–	–	–	–	–	940 nM	–
CC[C@]12CCC[C@@]1(NC)[C@@H]1CC[C@H]2C1	–	100 % inh	–	–	–	–	–	–	510 nM	32000 nM	120 nM	97 % inh	6900 nM	94%	53000 nM	–	–	–	–
CN(C)[C@]12CCC[C@H]1[C@@H]1CC[C@H]2C1	–	99 % inh	410 nM	47000 nM	–	–	410 nM	98%	–	–	–	97 % inh	–	–	–	–	–	230 nM	16000 nM
CN(C)[C@@]12CCC[C@@H]1[C@H]1CC[C@@H]2C1	–	96 % inh	510 nM	20000 nM	–	–	500 nM	98%	–	–	–	96 % inh	–	–	–	–	–	190 nM	13000 nM
CC[C@@]12CCC[C@]1(N(C)C)[C@H]1CC[C@@H]2C1	–	–	–	33000 nM	–	–	710 nM	–	–	–	–	95 % inh	–	98%	–	–	–	240 nM	91000 nM
CC[C@]12CCC[C@@]1(N(C)C)[C@@H]1CC[C@H]2C1	–	–	–	64000 nM	–	–	370 nM	–	–	–	–	96 % inh	–	99%	–	–	–	200 nM	70000 nM
